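Tested at 5 concentrations; 48 h exposure; 96-well plates; endpoints linearly interpolated, else capped at highest concentration. Here, GI50 denotes the concentration required for 50% inhibition of growth.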 Calls of active or inactive are those of the source. No stated cut-off is given here; in the data, active = GI50 up to about 1.1 µM and inactive = higher.

Some test systems named below: SK-MEL-2; ACHN; LOX IMVI; HT-29; A549; OVCAR-8; KM12; CAKI-1; SW-620; 786-0; SN12C; NCI-H226; HL-60; M14; OVCAR-5; HOP-92; CCRF-CEM.
Assay in all cases: inhibition of tumour cell growth, NCI panel, 48 h

Turning to `CCOC(=O)C1=C(Nc2ccccc2)SCC1=O`, the GI50 in the assay on SK-MEL-2, with ACHN, in the assay with LOX IMVI, with HT-29, with A549 and with OVCAR-8 was > 100 µM (inactive) each time. Also, the GI50 in the assay with KM12, in the assay with CAKI-1, in the assay on SW-620, with 786-0, in the assay with SN12C and with NCI-H226 was > 100 µM (inactive) throughout. In addition, the GI50 with HL-60, in the assay with M14, with OVCAR-5 and in the assay on HOP-92 was > 100 µM (inactive) each time.

`CCN(CC)C(=O)Cc1[nH][nH]c(=O)c1C(=O)N(CC)CC`: the GI50 in the assay on SK-MEL-2, in the assay with ACHN, with LOX IMVI, in the assay with HT-29, with A549 and in the assay with OVCAR-8 was > 100 µM (inactive) in each case. The GI50 in the assay on KM12, in the assay on SW-620, with 786-0, in the assay on SN12C, in the assay on NCI-H226 and with CCRF-CEM was > 100 µM (inactive) each time. Also, the GI50 in the assay with HL-60, in the assay with M14 and in the assay on HOP-92 was > 100 µM (inactive) throughout.

Take `CC(=O)CC(=O)/C=C/c1cccs1`: the GI50 in the assay on SK-MEL-2 is > 100 µM (inactive); with ACHN, 97.3 µM (inactive); in the assay on LOX IMVI, 55.2 µM (inactive); in the assay with HT-29, 58.9 µM (inactive); in the assay on A549, > 100 µM (inactive); with OVCAR-8 it was > 100 µM (inactive). Besides, the GI50 with KM12 is 55.2 µM (inactive); with CAKI-1, > 100 µM (inactive); in the assay on SW-620, 70.1 µM (inactive); in the assay with 786-0, 99.5 µM (inactive); in the assay with SN12C, 63 µM (inactive); in the assay with NCI-H226, > 100 µM (inactive). Moreover, the GI50 in the assay on CCRF-CEM is 38.5 µM (inactive); in the assay with HL-60, 27.9 µM (inactive); in the assay with M14, 54.2 µM (inactive); with OVCAR-5, > 100 µM (inactive).

As to `O=C(O)/C=C/c1nc2ccccc2c(=O)o1`, the GI50 in the assay with SK-MEL-2, with ACHN, in the assay on LOX IMVI, in the assay with HT-29, in the assay on A549 and with OVCAR-8 was > 100 µM (inactive) in each case. Moreover, the GI50 was > 100 µM (inactive) with KM12; > 100 µM (inactive) in the assay with SW-620; > 100 µM (inactive) in the assay on 786-0; > 100 µM (inactive) with SN12C; > 100 µM (inactive) in the assay with NCI-H226; 77.3 µM (inactive) in the assay with CCRF-CEM. The GI50 with HL-60, in the assay with M14 and in the assay on HOP-92 was > 100 µM (inactive) in each case.

On to `c1ccc(C2=NOC3C4CCC(C4)C23)cc1` (stereo not drawn), for which the GI50 in the assay on SK-MEL-2, with ACHN, in the assay on HT-29, in the assay with A549, in the assay with OVCAR-8 and with KM12 was > 100 µM (inactive) in each case. Moreover, the GI50 in the assay with CAKI-1 is < 0.01 µM (active); in the assay with SW-620, > 100 µM (inactive); in the assay with 786-0, > 100 µM (inactive); with SN12C it was > 100 µM (inactive); in the assay on NCI-H226, > 100 µM (inactive); in the assay with CCRF-CEM, > 100 µM (inactive). The GI50 in the assay with HL-60, in the assay with M14, in the assay with OVCAR-5 and with HOP-92 was > 100 µM (inactive) in each case.

With `O=C(CC1(O)C(=O)Nc2ccccc21)c1ccc(O)cc1O` (stereo not drawn), the GI50 in the assay on SK-MEL-2, in the assay on ACHN, in the assay on LOX IMVI, with HT-29, with A549 and in the assay with OVCAR-8 was > 100 µM (inactive) in each case. Further, the GI50 with CAKI-1, in the assay on SW-620, with 786-0, with SN12C, with NCI-H226 and in the assay with HL-60 was > 100 µM (inactive) each time. In addition, the GI50 in the assay on M14, in the assay with OVCAR-5 and with HOP-92 was > 100 µM (inactive) throughout.

Regarding `CC(=O)NC(CCCCN(Cc1ccccc1)C(=O)NCCCl)C(=O)NCc1ccccc1` (stereo not drawn), the GI50 in the assay with SK-MEL-2, with ACHN, in the assay on HT-29, in the assay with A549, with OVCAR-8 and in the assay with KM12 was > 100 µM (inactive) in each case. The GI50 in the assay on CAKI-1, in the assay with SW-620, in the assay on 786-0, with SN12C, with NCI-H226 and with CCRF-CEM was > 100 µM (inactive) each time. The GI50 in the assay with HL-60, in the assay on M14 and in the assay with HOP-92 was > 100 µM (inactive) throughout.

With `Nc1ncnc2c1ncn2C1CC(OC2CCCCO2)C(CO)O1` (stereo not drawn), the GI50 in the assay on SK-MEL-2, in the assay on ACHN, with LOX IMVI, with HT-29, in the assay on A549 and with OVCAR-8 was > 100 µM (inactive) throughout. Moreover, the GI50 in the assay with KM12, with SW-620, with 786-0, with SN12C, in the assay with NCI-H226 and in the assay on CCRF-CEM was > 100 µM (inactive) each time. Further, the GI50 in the assay on HL-60, in the assay on M14, with OVCAR-5 and in the assay with HOP-92 was > 100 µM (inactive) throughout.

For the molecule `O=C1Nc2cc([N+](=O)[O-])c(Br)cc2C1=O`, the GI50 in the assay with SK-MEL-2 is 26.7 µM (inactive); in the assay on ACHN, 18.2 µM (inactive); with LOX IMVI, 18.5 µM (inactive); with HT-29, 20.2 µM (inactive); in the assay with A549 it was 95.7 µM (inactive); in the assay on OVCAR-8, 16.4 µM (inactive). The GI50 in the assay on KM12 is 51.4 µM (inactive); in the assay with CAKI-1, 19.1 µM (inactive); in the assay with SW-620, 19.3 µM (inactive); in the assay on 786-0, 18.5 µM (inactive); in the assay on SN12C it was 18.4 µM (inactive); with NCI-H226, 18.5 µM (inactive). Also, the GI50 in the assay with CCRF-CEM was 6.01 µM (inactive); in the assay with M14 it was 16.6 µM (inactive); in the assay with HOP-92 it was 24.5 µM (inactive).

For the molecule `CCOC(=O)CN1C(=O)c2cccc3cc([N+](=O)[O-])cc(c23)C1=O`, the GI50 in the assay with SK-MEL-2 is 1.17 µM (inactive); in the assay with ACHN, 10.1 µM (inactive); in the assay with LOX IMVI, 1.43 µM (inactive); in the assay with HT-29 it was 12.1 µM (inactive); in the assay with A549, 13.1 µM (inactive); in the assay on OVCAR-8, 1.78 µM (inactive). The GI50 in the assay on KM12 is 2.52 µM (inactive); with SW-620, 1.59 µM (inactive); in the assay on 786-0 it was 13.4 µM (inactive); in the assay on SN12C, 4.93 µM (inactive); in the assay with NCI-H226, 10.7 µM (inactive); in the assay with CCRF-CEM it was 0.287 µM (active). Besides, the GI50 with HL-60 was 0.637 µM (active); in the assay on M14, 3.35 µM (inactive); in the assay on OVCAR-5, 15.5 µM (inactive); in the assay on HOP-92, 2.19 µM (inactive).

Consider `Cc1c2cc[n+](COC(=O)c3ccccc3)cc2c(C)c2c1[nH]c1ccccc12`, for which the GI50 with ACHN is 0.532 µM (active); in the assay with LOX IMVI, 0.436 µM (active); with HT-29, 0.453 µM (active); in the assay on A549 it was 0.299 µM (active); in the assay with OVCAR-8 it was 0.551 µM (active); in the assay on KM12, 0.533 µM (active). For the same molecule, the GI50 with CAKI-1 was 1.4 µM (inactive); in the assay with SW-620, 0.383 µM (active); in the assay on 786-0, 0.778 µM (active); with SN12C it was 0.533 µM (active); in the assay on CCRF-CEM, 0.434 µM (active); with HL-60, 1.1 µM (active). Besides, the results for the GI50 with OVCAR-5 and in the assay on HOP-92 were 0.824 µM (active) and 0.682 µM (active), respectively.

Take `CN[C@@H](C)[C@H](N)c1ccccc1`: the GI50 in the assay with ACHN, with LOX IMVI, in the assay with HT-29, with A549, with OVCAR-8 and in the assay with KM12 was > 100 µM (inactive) each time. The GI50 in the assay with CAKI-1, in the assay on SW-620, with 786-0, in the assay with SN12C, with NCI-H226 and in the assay on CCRF-CEM was > 100 µM (inactive) in each case. Moreover, the GI50 in the assay on M14 and in the assay on HOP-92 was > 100 µM (inactive) each time.

With `CCCCCCCCCC(=O)OCC1OC(n2cc(F)c(=O)[nH]c2=O)C(N)C(OC(=O)CCCCCCCCC)C1O` (stereo not drawn), the GI50 in the assay with SK-MEL-2 was 15.5 µM (inactive); in the assay with ACHN, 40.2 µM (inactive); with LOX IMVI, 16.5 µM (inactive); in the assay with HT-29 it was 17.5 µM (inactive); in the assay on A549, 18 µM (inactive); with OVCAR-8, 18.2 µM (inactive). Also, the GI50 is 19.1 µM (inactive) in the assay with KM12; 38.2 µM (inactive) with CAKI-1; 17.4 µM (inactive) in the assay on SW-620; 18.4 µM (inactive) with 786-0; 16.9 µM (inactive) with SN12C; 18.5 µM (inactive) in the assay with CCRF-CEM. For the same molecule, the GI50 in the assay with HL-60 was 23.3 µM (inactive); in the assay with M14, 19.2 µM (inactive); with HOP-92, 20.6 µM (inactive).

These data come from ChEMBL document CHEMBL1201862, “PubChem BioAssay data set” (2004).
